8 molecules from paper PMC10439028, “SGLT5 is the renal transporter for 1,5-anhydroglucitol, a major player in two rare forms of neutropenia” (Cellular and Molecular Life Sciences: CMLS, 2023) can be followed below.

Values joined by “and” are separate entries in the source; they are usually repeats but may differ in a detail not shown here. Identical values can stand only once. Like-named read-outs stand apart in the source and are kept apart here.

Type in all cases: cell-based
One data set addresses T1, human SGLT4 (Homo sapiens, UniProt Q2M3M2).
T1 construct: expressed in transfected cells
T1 sequence (Q2M3M2 1-681): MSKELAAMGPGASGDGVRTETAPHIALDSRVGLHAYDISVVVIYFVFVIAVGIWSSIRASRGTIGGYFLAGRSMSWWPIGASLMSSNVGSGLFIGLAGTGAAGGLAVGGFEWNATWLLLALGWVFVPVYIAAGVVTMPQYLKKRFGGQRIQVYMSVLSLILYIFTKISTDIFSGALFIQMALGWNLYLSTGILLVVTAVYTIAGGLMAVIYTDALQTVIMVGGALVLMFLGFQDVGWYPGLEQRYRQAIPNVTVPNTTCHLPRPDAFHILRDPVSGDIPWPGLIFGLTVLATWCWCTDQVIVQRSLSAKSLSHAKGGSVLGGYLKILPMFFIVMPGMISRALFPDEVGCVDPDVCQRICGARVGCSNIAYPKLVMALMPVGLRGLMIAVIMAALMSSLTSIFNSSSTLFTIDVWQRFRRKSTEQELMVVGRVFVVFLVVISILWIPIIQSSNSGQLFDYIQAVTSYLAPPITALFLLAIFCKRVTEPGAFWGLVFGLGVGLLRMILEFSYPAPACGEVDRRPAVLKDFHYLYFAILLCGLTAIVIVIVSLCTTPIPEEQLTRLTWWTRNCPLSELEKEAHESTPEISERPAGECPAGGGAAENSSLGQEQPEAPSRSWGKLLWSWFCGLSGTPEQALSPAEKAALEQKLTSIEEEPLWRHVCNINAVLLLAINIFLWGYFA
The data set can be described thus: Inhibition of 10 µM radiolabelled mannose transport in HEK293T cells overexpressing human SGLT4. The settings on record: for inhibition at 10000 µM: HEK-293T, read-out: hSGLT4 inhibition with 10 mM inhibitor. The protocol: (§1) For a typical transporter experiment we proceeded as follows. […] To minimize cell loss during the various washing steps in the radioactive uptake experiments, the wells where the cells were seeded were previously coated with poly- D-lysine, which improved their adhesion to the plastic surface of the wells. For this, each well of the 24-well plates was treated with 200 µl of a 0.01% poly-L-lysine solution for 10 min, washed 3 times with 1 ml of sterilized water and left to dry for 2 h. Only then could the 24-well plates be seeded with the appropriate cell lines and cultured overnight at 37 °C in 5% CO2.
(§2) On day two, the radioactive uptake assay could be performed. The cell culture media was removed by aspiration and cells were incubated for 20 min at 37 °C and 5% CO2 with a basal medium (10 mM HEPES, pH 7.4, 1 mM CaCl2, 1 mM MgCl2, 2 mM KCl) containing 140 mM choline chloride to deplete intracellular […] ions. This was subsequently replaced with the uptake medium (basal medium + 140 mM NaCl, 25 μM cytochalasin B, 1 mg/ml BSA) containing either radioactive U-[^14C]-mannose (15,000 cpm/well) or 2-[^3H]-1,5-AG (30,000 cpm/well) and respectively, non-radioactive mannose or 1,5-AG, at the required concentration in the experiment. Importantly, when measuring the transport of mannose, the uptake media also contained 0.5 mM glucose. This resulted from the need to reduce the background transport of mannose in control HEK293T cells in order to optimize the transport assay for this sugar in our model cell lines. Consequently, after testing various inhibitors (Supplementary Fig. 1), 0.5 mM glucose + 25 µM cytochalasin B appeared as the best combination to decrease efficiently the endogenous transport of mannose in control cells without affecting the transport of mannose in model cell lines overexpressing SGLT4 and SGLT5. Therefore in the radioactive uptake assays for mannose, the uptake medium was: basal uptake medium + 140 mM NaCl, 25 μM cytochalasin B, 0.5 mM glucose and 1 mg/ml BSA to which we added U-[^12C + ^14C]-mannose as described above.
(§3) Once the uptake medium was added to the cells, the plates were incubated at 37 °C in 5% CO2 during the required time. […] In each experiment, the transport activities were calculated after subtracting a “blank” value, corresponding to the radioactivity in the appropriate control cells (HEK293T cells that were stably or transiently transfected with one of the parent plasmids pEF6/MycHisA, pEF6HisB, pUB82 or pUB83 with no inserted cDNA) that were analyzed in parallel.
(§4) The transport experiments to study the specificity of SGLT4 or SGLT5, were performed in the presence of 10 µM U-[^14C + ^12C]-mannose (for SGLT4) or 2-[^3H + ^1H]-1,5-AG (for SGLT5) and increasing concentrations of various sugars tested. The transport experiments to study the inhibition of empagliflozin, dapagliflozin or remogliflozin, on the transport of 1,5-AG by SGLT5 or its variants were performed in the presence of 10 µM 2-[^3H + ^1H]-1,5-AG and increasing concentrations of the various gliflozins tested.

Another data set concerns the target T2, human SGLT5 (Homo sapiens, UniProt A0PJK1).
T2 construct: expressed in transfected cells
T2 sequence (A0PJK1 1-596): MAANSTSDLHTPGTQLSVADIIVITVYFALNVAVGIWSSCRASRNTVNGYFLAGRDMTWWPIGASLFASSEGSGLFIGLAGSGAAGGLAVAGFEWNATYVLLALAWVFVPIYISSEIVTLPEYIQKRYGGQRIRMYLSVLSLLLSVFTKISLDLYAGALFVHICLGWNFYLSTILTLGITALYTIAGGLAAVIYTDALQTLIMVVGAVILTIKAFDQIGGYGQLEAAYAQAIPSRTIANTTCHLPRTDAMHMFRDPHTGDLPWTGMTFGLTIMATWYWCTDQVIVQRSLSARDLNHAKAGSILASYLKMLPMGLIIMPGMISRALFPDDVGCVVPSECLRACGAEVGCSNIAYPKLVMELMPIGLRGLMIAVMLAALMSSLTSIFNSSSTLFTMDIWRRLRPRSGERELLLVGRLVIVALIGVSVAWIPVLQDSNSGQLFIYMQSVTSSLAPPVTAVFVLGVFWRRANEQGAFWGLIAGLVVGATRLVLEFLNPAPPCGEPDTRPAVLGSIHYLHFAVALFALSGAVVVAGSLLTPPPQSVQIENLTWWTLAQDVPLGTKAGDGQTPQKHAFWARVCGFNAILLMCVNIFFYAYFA
The data set can be described thus: Inhibition of 10 µM radiolabelled 1,5-AG transport in HEK293T cells overexpressing human SGLT5. As for the experimental part:
as §1, §2, §3, §4

For data set [1], the target named is T3, SGLT5-TM (S70N–E71I–L75H) (Homo sapiens, UniProt A0PJK1, E71I/L75H/S70N).
T3 construct: pUB83-hSGLT5-iso2 as well as the various SGLT5 mutants obtained were used to transduce HEK293T cells; expressed in transfected cells; host or cells: HEK293T, lentiviral transduction (pUB83)
Put plainly: Inhibition of 10 µM 1,5-AG transport by triple mutant SGLT5-TM (S70N-E71I-L75H). As to conditions: versus wild-type SGLT5, competition experiments, Supplementary Fig. 7. As for the experimental part: as §4
SGLT5 mutants were created using the quick-change site directed mutagenesis method that enables effective mutagenesis without subcloning of the amplified PCR products. Complementary primer pairs carrying the desired replacements (Supplementary Table 3) were designed using an online tool (https://www.agilent.com/store/primerDesignProgram.jsp). The PCR protocol was carried out following the manufacturer instructions regarding the KOD HOT Start polymerase kit (TOYOBO™, Novagen). The amplified DNA was cleaned-up from the reactions constituents using the GeneJET PCR purification Kit (Thermo Scientific™) and the size of the DNA fragment were verified by DNA agarose-gel electrophoresis. After eliminating the parental DNA by digesting the purified DNA with the DpnI restriction enzyme, the DNA fragments containing the appropriate changes were transformed in E. coli NEB Turbo competent cells (C2984H). Once colonies were obtained, plasmid DNA was finally amplified, purified and sequenced to verify that the required changes had been introduced and eliminate any PCR errors. Next, pUB83-hSGLT5-iso2 as well as the various SGLT5 mutants obtained were used to transduce HEK293T cells using the exact same protocol as described above to create model cell lines overexpressing the different SGLT5 transporters.
Supplementary Fig. 7: Substrate specificity of SGLT5 - impact of replacing specific and conserved substrate binding residues in human SGLT5 by the equivalent ones in […]
When shown, the IC50 values are derived from inhibition curves showing the transport activity of 1,5-AG by the indicated SGLT5 mutants. Values show the concentration needed of the various sugars to inhibit by 50% the transport activity of 10 µM 2-[1H+3H]-1,5-AG. When the inhibition was too weak to derive IC50 values, the inhibition of the transport of 1,5-AG with the indicated concentration of the inhibitor-sugar is shown. Of note, despite having a lower […]
µM). These apparently contradictory changes are not necessarily surprising: in the case of enzymes, there are multiple examples of mutations that, at the same time, increase the apparent affinity (decrease the Km) of an enzyme for its substrate while decreasing the Vmax.
Measurement of transport activities and the description of the structures of the various inhibitory sugars used are as in Fig. 3C. Data corresponds to n = 3 in at least 2 independent […]
(1 picture or pasted object on this page, not shown here)

Substrate in data set [2]: OC[C@H]1OC[C@H](O)[C@@H](O)[C@@H]1O
Put plainly: Radioactive uptake assay (saturation kinetics) in HEK293T cells expressing mouse SGLT5. As to conditions: other: 30 min, Supplementary Fig. 4; pH 7.4; 37.0 °C. As for the experimental part: as §1
On day two, the radioactive uptake assay could be performed. […]
Once the uptake medium was added to the cells, the plates were incubated at 37 °C in 5% CO2 during the required time. […] In each experiment, the transport activities were calculated after subtracting a “blank” value, corresponding to the radioactivity in the appropriate control cells (HEK293T cells that were stably or transiently transfected with one of the parent plasmids pEF6/MycHisA, pEF6HisB, pUB82 or pUB83 with no inserted cDNA) that were analyzed in parallel. […]
Supplementary Fig. 4: Transport activities for 1,5-anhydroglucitol and mannose of recombinant mouse SGLT4 and SGLT5 isoforms measured in HEK293T cells. […]

The mark [3] stands for this setting: 10 mM inhibitor, substrate 10 μM mannose.
Where [4] appears, read: substrate 10 μM 1,5-AG, unlabelled sugars, Fig. 3C, read-out: hSGLT5 IC50.
The mark [5] stands for this setting: 10 µM 2-[1H+3H]-1,5-AG, Fig. 5C, read-out: IC50 for SGLT5-mediated 1,5-AG transport (gliflozins).

T3 sequence (A0PJK1 whole entry S70N/E71I/L75H): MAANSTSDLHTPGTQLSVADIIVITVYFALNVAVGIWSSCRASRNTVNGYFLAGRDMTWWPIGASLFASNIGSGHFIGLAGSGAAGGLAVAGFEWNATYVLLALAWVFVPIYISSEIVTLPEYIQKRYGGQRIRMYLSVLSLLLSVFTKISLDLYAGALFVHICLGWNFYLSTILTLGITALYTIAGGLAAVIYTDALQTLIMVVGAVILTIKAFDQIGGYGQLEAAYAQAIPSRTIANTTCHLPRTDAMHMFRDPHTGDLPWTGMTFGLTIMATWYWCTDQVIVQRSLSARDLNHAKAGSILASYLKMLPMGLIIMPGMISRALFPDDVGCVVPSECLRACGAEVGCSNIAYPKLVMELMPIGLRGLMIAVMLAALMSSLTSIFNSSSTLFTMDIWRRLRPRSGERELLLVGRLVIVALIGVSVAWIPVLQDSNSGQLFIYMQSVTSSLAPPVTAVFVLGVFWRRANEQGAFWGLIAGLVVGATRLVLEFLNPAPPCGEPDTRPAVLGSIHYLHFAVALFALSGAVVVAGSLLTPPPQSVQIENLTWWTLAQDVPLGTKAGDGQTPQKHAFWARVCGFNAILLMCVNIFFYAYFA

With `O=C1CO[C@H](CO)[C@@H](O)[C@@H]1O` [1,5-AF, 1,5-anhydrofructose], the inhibition at 10000 µM at human SGLT4 (setting [3]) was determined as 44%. In addition, the IC50 at human SGLT5 (setting [4]) was determined as 179 µM.
For the molecule `OC[C@H]1OC[C@@H](O)[C@@H](O)[C@@H]1O` [1,5-AM, 1,5-anhydromannitol], the “less affinity of SGLT4 compared to SGLT5” value at human SGLT4 (from Fig. 3C) is 200 fold. In addition, at human SGLT4 (substrate 10 μM mannose, Fig. 3C, read-out: hSGLT4 IC50), the IC50 came out at 2300 µM. Also, the “loss of affinity of SGLT5-TM” value in data set [1] is 250 fold. At human SGLT5 (SGLT5), the “preference for 1,5-anhydromannitol over 1,5-AG, difference in Ki” value amounted to 12 fold and the “preference of 1,5-anhydromannitol over mannose, difference in Ki” value is reported as 25 fold. The IC50 at human SGLT5 (setting [4]) was 13 µM.
For `O=C(CO)[C@@H](O)[C@H](O)[C@H](O)CO` [Fructose, fructose], the inhibition at 10000 µM on human SGLT4 (setting [3]) was 33%. For the same molecule, in data set [1], the “loss of affinity of SGLT5-TM” value is listed as “tenfold”. Moreover, at human SGLT5, the IC50 is 726 µM.
For the molecule `OC[C@H]1OC(O)[C@H](O)[C@@H](O)[C@@H]1O` (some centres unmarked) [Glucose, glucose], at human SGLT4 (setting [3]), the inhibition at 10000 µM worked out at 20%. In data set [1], the “gain of affinity of SGLT5-TM” value came to 30 fold. The IC50 at human SGLT5 (setting [4]) was determined as 3650 µM.
Take `CCOc1ccc(Cc2cc([C@@H]3O[C@H](CO)[C@@H](O)[C@H](O)[C@H]3O)ccc2Cl)cc1` [dapagliflozin]: on human SGLT5 (setting [5]), the IC50 came out at 0.4 µM.
Regarding `Cc1c(Cc2ccc(OC(C)C)cc2)c(O[C@@H]2O[C@H](CO)[C@@H](O)[C@H](O)[C@H]2O)nn1C(C)C` [remogliflozin], the IC50 on human SGLT5 (setting [5]) is 0.26 µM and 0.27 µM.
As for galactose, on human SGLT4 (setting [3]), the “hSGLT4 inhibition with 10 mM inhibitor” value came out at 39%. Further, the “gain of affinity of SGLT5-TM” value in data set [1] is listed as 30 fold. The “hSGLT5 inhibition with 10 mM inhibitor” value at human SGLT5 (10 mM inhibitor, substrate 10 μM 1,5-AG) worked out at 10%.

B1: mouse SGLT5 (Mus musculus) (protein)
chain: MAGNSTGDAHVPGSQLSVTDIIVISVYFALNVAVGIWSACRANKNTVSGYFLAGRDMAWWPIGASLFASSEGSGLFVGLAGSGAAGGLAVAGFEWNATYVLLALAWVFVPIYISSEIVTLPEYIQKRFGGQRIRTYLSVLSLMLSVFTKISIDLYAGALFVHICLGWNFYLSTILTLAITALYTIAGGLATVIYTDALQTIIMVVGAVILAVKAFNQIGGYEQLEAAYAQAIPSRTIPNTTCHLPRADAMHMFRDPSTGDLPWTGMTFGLTIMATWYWCTDQVIVQRSLSARNLNHAKAGSILASYLKMLPMGLMIMPGMISRVLFPDDVGCVVPSECLRACGAEIGCSNIAYPKLVMELMPIGLRGLMIAVMMAALLSSLTSIFNSSSTLFTMDIWRQLRPSAGERELLLVGRLVIVVLIGVSVAWIPVLQGSNSGQLFIYMQSVTSSLAPPVTAIFILGIFWRRANEQGAFWGLMAGLVVGALRLVLEFLYPEPPCGQIDTRPAPLRSLHYLHFAIALFLLTCAVMAAGSLLSPPPQQRQIENLTWWTLAPNWSLGTKTGDGQTPQKRAFWARVCNVNAIFLMCVNIFFYAYFA
notes: expressed in transfected cells; host or cells: HEK293T
As for B1, in data set [2], the Km is 500 µM.
